Read-outs that look alike come from different tables or passages of the source. *1 amine or outer side, *2 acyl side, *3 side chain or, on linkers, in order; H or OH if unused. Where a SMILES comes first, the peptide text is derived from it. Bridges are numbered along the chain shown (N, C = ends). [ ]: non-standard residue; d: D form. The star is where a group is joined. hPhe(3,5-F2-4-CF3) = N[C@@H](CCc1cc(F)c(C(F)(F)F)c(F)c1)C(=O)O; hPhe(3-Cl-4-CF3) = N[C@@H](CCc1ccc(C(F)(F)F)c(Cl)c1)C(=O)O; X38 = C#CCN([C@@H](Cc1ccc(C(F)(F)F)cc1)C(=O)[*:2])[*:1]; NPrPhe(4-CF3) = CCCN[C@@H](Cc1ccc(C(F)(F)F)cc1)C(=O)O; NEtPhe(4-CF3) = CCN[C@@H](Cc1ccc(C(F)(F)F)cc1)C(=O)O; NMeGly(cPent) = CN[C@H](C(=O)O)C1CCCC1; X8 = C[C@@](N[*:1])(C(=O)[*:2])C1CC1; NMeD = CN[C@@H](CC(=O)O)C(=O)O; NMeL = CN[C@@H](CC(C)C)C(=O)O; Morpholide = C1CN(*)CCO1; NMeA = CN[C@@H](C)C(=O)O; Ac5c = NC1(C(=O)O)CCCC1; Aze = O=C(O)[C@@H]1CCN1; Ac4c = NC1(C(=O)O)CCC1; Sar = CNCC(=O)O
Columns and labels:
[1] = molecular target: GDP-bound NRAS wild-type protein (Homo sapiens, UniProt P01111); assay: Binding to NRAS by surface plasmon resonance (SPR), Single Cycle Kinetics; settings: for NRAS/KRAS (ratio of KD value for NRAS to KD value for KRAS) / NRAS/KRAS (ratio of KD value with respect to NRAS to KD value with respect to KRAS): SPR, GDP-bound NRAS wild-type protein vs GDP-bound KRAS wild-type protein
[2] = molecular target: GDP-bound HRAS wild-type protein (Homo sapiens, UniProt P01112); assay: Binding to HRAS by surface plasmon resonance (SPR), Single Cycle Kinetics; settings: for HRAS/KRAS (ratio of KD value for HRAS to KD value for KRAS) / HRAS/KRAS (ratio of KD value with respect to HRAS to KD value with respect to KRAS): SPR, GDP-bound HRAS wild-type protein vs GDP-bound KRAS wild-type protein
[3] = molecular target: GDP-bound KRAS wild-type protein (Homo sapiens, UniProt P01116); assay: Binding to KRAS by surface plasmon resonance (SPR), Single Cycle Kinetics; settings: GDP-bound KRAS wild-type protein, read-out: KRAS KD
[4] = SPR Single Cycle Kinetics, 1:1 binding model

GDP-bound NRAS wild-type protein, sequence (P01111 whole entry): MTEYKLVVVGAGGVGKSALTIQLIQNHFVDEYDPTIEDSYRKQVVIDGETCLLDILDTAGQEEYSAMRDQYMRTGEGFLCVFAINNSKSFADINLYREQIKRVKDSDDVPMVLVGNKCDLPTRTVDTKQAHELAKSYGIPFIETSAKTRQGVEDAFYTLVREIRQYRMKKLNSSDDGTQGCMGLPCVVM
GDP-bound HRAS wild-type protein, sequence (P01112 whole entry): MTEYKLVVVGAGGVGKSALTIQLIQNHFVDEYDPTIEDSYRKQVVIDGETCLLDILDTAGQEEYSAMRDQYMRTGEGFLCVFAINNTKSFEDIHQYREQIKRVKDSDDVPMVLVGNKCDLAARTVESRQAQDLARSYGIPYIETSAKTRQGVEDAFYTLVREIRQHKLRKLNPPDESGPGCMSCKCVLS
GDP-bound KRAS wild-type protein, sequence (P01116 whole entry): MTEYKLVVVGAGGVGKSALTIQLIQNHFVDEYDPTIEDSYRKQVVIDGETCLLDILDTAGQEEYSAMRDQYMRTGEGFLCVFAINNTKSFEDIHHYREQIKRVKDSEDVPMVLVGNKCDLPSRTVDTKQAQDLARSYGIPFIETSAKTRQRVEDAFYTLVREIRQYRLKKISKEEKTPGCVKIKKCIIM

Row | SMILES | Kd [3, 4] [nM] | Kd ([3]; SPR, Single Cycle Kinetics) [nM] | NRAS/KRAS (ratio of KD value for NRAS to KD value for KRAS) [1] | HRAS/KRAS (ratio of KD value for HRAS to KD value for KRAS) [2] | also measured
1 | CCO[C@@H]1C[C@H]2C(=O)NC3(CCC3)C(=O)N(C)[C@@H](C3CCCC3)C(=O)N(C)[C@H](C(=O)N(C)C)CC(=O)N(C)[C@@H](CC3CCCC3)C(=O)N[C@@H]([C@@H](C)CC)C(=O)N(C)CC(=O)N(C)[C@H]3C/C=C\CCN(C3=O)[C@@H](Cc3ccc(C(F)(F)F)cc3)C(=O)N(C)CC(=O)N[C@@H](CCc3ccc(C(F)(F)F)c(Cl)c3)C(=O)N2C1 [PP2842] | 0.08 |  |  |  | NRAS/KRAS (ratio of KD value with respect to GDP-bound NRAS wild-type protein to KD value with respect to KRAS) ([1]; SPR KD ratio NRAS/KRAS, class symbols): A (a compound having 10 or more and less than 20 is denoted as A); HRAS/KRAS (ratio of KD value with respect to GDP-bound HRAS wild-type protein to KD value with respect to KRAS) ([2]; SPR KD ratio HRAS/KRAS, class symbols): B (a compound having 3 or more and less than 10 is denoted as B)
2 | CC[C@H](C)[C@@H]1NC(=O)[C@H](CC(C)C)N(C)C(=O)C[C@@H](C(=O)N2CCOCC2)N(C)C(=O)[C@H](C2CCCC2)N(C)C(=O)C2(CCC2)NC(=O)[C@@H]2[C@@H](OCC3CCCC3)CCN2C(=O)[C@H](CCc2cc(F)c(C(F)(F)F)c(F)c2)NC(=O)CN(C)C(=O)[C@H](Cc2ccc(C(F)(F)F)cc2)N2CCCC[C@@H](C2=O)N(C)C(=O)CN(C)C1=O [PP1073] |  | 0.36 | B (a compound having 3 or more and less than 10 is denoted as B) | B (a compound having 3 or more and less than 10 is denoted as B) | 
3 | CCO[C@@H]1C[C@H]2C(=O)NC3(CCC3)C(=O)N(C)[C@@H](C3CCCC3)C(=O)N(C)[C@H](C(=O)N(C)C)CC(=O)N(C)[C@@H](COC)C(=O)N[C@@H]([C@@H](C)CC)C(=O)NCC(=O)N(C)[C@H]3CCCCCN(C3=O)[C@@H](Cc3ccc(C(F)(F)F)cc3)C(=O)N(C)CC(=O)N[C@@H](CCc3cc(F)c(C(F)(F)F)c(F)c3)C(=O)N2C1 [PP0859] |  | 0.31 | B (a compound having 3 or more and less than 10 is denoted as B) | B (a compound having 3 or more and less than 10 is denoted as B) | 
4 | CCO[C@@H]1C[C@H]2C(=O)NC3(CCC3)C(=O)N(C)[C@@H](C3CCCC3)C(=O)N(C)[C@H](C(=O)N(C)CCOC)CC(=O)N(C)[C@@H](CC)C(=O)N[C@@H]([C@@H](C)CC)C(=O)N(C)CC(=O)N(C)[C@H]3C/C=C\CCN(C3=O)[C@@H](Cc3ccc(C(F)(F)F)cc3)C(=O)N(C)CC(=O)N[C@@H](CCc3cc(F)c(C(F)(F)F)c(F)c3)C(=O)N2C1 [PP1316, (2S,8S,12R,14S,20S,23S,27S,30S,36S,38Z)-20-cyclopentyl-8-[2-[3,5-difluoro-4-(trifluoromethyl)phenyl]ethyl]-12-ethoxy-27-ethyl-N-(2-methoxyethyl)-N,4,19,22,26,32,35-heptamethyl-30-[(1S)-1-methylpropyl]-3,6,9,15,18,21,25,28,31,34,42-undecaoxo-2-[[4-(trifluoromethyl)phenyl]methyl]spiro[1,4,7,10,16,19,22,26,29,32,35-undecazatricyclo[34.5.1.0^10,14]dotetracont-38-ene-17,1′-cyclobutane]-23-carboxamide] |  |  |  |  | NRAS/KRAS (ratio of KD value for NRAS to KD value for KRAS) ([1]; KD ratio class): A (a compound having 10 or more and less than 20 is denoted as A); HRAS/KRAS (ratio of KD value for HRAS to KD value for KRAS) ([2]; KD ratio class): A (a compound having 10 or more and less than 20 is denoted as A); Kd ([3]; SPR, Single Cycle Kinetics, 1:1 binding model): 0.072 nM
5 | CCO[C@@H]1C[C@H]2C(=O)NC3(CCC3)C(=O)N(C)[C@@H](C3CCCC3)C(=O)N(C)[C@H](C(=O)N3CCOCC3)CC(=O)N(C)[C@@H](CC(C)C)C(=O)N[C@@H]([C@@H](C)CC)C(=O)N(C)CC(=O)N(C)[C@H]3CCCCCN(C3=O)[C@@H](Cc3ccc(F)cc3Cl)C(=O)N(C)CC(=O)N[C@@H](CCc3cc(F)c(C(F)(F)F)c(F)c3)C(=O)N2C1 [PP0918] |  | 0.4 | B (a compound having 3 or more and less than 10 is denoted as B) | B (a compound having 3 or more and less than 10 is denoted as B) | 
6 | CCCN1CC(=O)N(C)[C@H]2C/C=C\CCN(C2=O)[C@@H](Cc2ccc(C(F)(F)F)cc2)C(=O)N(C)CC(=O)N[C@@H](CCc2cc(F)c(C(F)(F)F)c(F)c2)C(=O)N2C[C@H](OCC)C[C@H]2C(=O)NC2(CCC2)C(=O)N(C)[C@@H](C2CCCC2)C(=O)N(C)[C@H](C(=O)N(C)C)CC(=O)N(C)[C@@H](CC)C(=O)N[C@@H]([C@@H](C)CC)C1=O [PP1053] |  | 0.23 | A (a compound having 10 or more and less than 20 is denoted as A) | A (a compound having 10 or more and less than 20 is denoted as A) | 

Now from value to compound, other results behind:

Row | Kd [3, 4] [nM] | Kd ([3]; SPR, Single Cycle Kinetics) [nM] | SMILES | NRAS/KRAS (ratio of KD value for NRAS to KD value for KRAS) [1] | HRAS/KRAS (ratio of KD value for HRAS to KD value for KRAS) [2] | also measured
7 | 0.98 |  | CCCN1C(=O)[C@@H]2CCN2C(=O)CN(C)C(=O)[C@H]([C@@H](C)CC)NC(=O)[C@H](CC(C)C)N(C)C(=O)C[C@@H](C(=O)N2CCOCC2)N(C)C(=O)[C@H](C2CCCC2)N(C)C(=O)[C@](C)(C2CC2)NC(=O)[C@@H]2CCCN2C(=O)[C@H](CCc2cc(F)c(C(F)(F)F)c(F)c2)NC(=O)CN(C)C(=O)[C@@H]1Cc1ccc(C(F)(F)F)cc1 [PP0791] ([NMeL]I[Sar][Aze][NPrPhe(4-CF3)][Sar][hPhe(3,5-F2-4-CF3)]P[X8][NMeGly(cPent)][NMeD]-Morpholide; lactam N-11) |  |  | NRAS/KRAS (ratio of KD value with respect to NRAS to KD value with respect to KRAS) [1]: C (A compound having a KD ratio of 0.1 or more and less than 3 is denoted as C); HRAS/KRAS (ratio of KD value with respect to HRAS to KD value with respect to KRAS) [2]: B (a compound having 3 or more and less than 10 is denoted as B)
8 | 1.1 |  | CCCN1C(=O)[C@@H]2CCN2C(=O)CN(C)C(=O)[C@H]([C@@H](C)CC)NC(=O)[C@H](CC(C)C)N(C)C(=O)C[C@@H](C(=O)N2CCOCC2)NC(=O)[C@H](C2CCCC2)N(C)C(=O)C2(CCC2)NC(=O)[C@@H]2CCCN2C(=O)[C@H](CCc2ccc(C(F)(F)F)c(Cl)c2)NC(=O)CN(C)C(=O)[C@@H]1Cc1ccc(C(F)(F)F)cc1 [PP0350] ([NMeL]I[Sar][Aze][NPrPhe(4-CF3)][Sar][hPhe(3-Cl-4-CF3)]P[Ac4c][NMeGly(cPent)]D-Morpholide; lactam N-11) | C (A compound having a KD ratio of 0.1 or more and less than 3 is denoted as C) | B (a compound having 3 or more and less than 10 is denoted as B) | 
9 | 0.18 |  | CC[C@H](C)[C@@H]1NC(=O)[C@H](CC(C)C)N(C)C(=O)C[C@@H](C(=O)N2CCOCC2)N(C)C(=O)[C@H](C2CCCC2)N(C)C(=O)C2(CCCC2)NC(=O)[C@@H]2CCCN2C(=O)[C@H](CCc2ccc(C(F)(F)F)c(Cl)c2)NC(=O)CN(C)C(=O)[C@H](Cc2ccc(C(F)(F)F)cc2)N(CC)C(=O)[C@@H]2CCN2C(=O)[C@H](C)N(C)C1=O [PP0002] ([NMeL]I[NMeA][Aze][NEtPhe(4-CF3)][Sar][hPhe(3-Cl-4-CF3)]P[Ac5c][NMeGly(cPent)][NMeD]-Morpholide; lactam N-11) | C (A compound having a KD ratio of 0.1 or more and less than 3 is denoted as C) | C (A compound having a KD ratio of 0.1 or more and less than 3 is denoted as C) | 
10 | 12 |  | CC[C@H](C)[C@@H]1NC(=O)[C@H](CC(C)C)N(C)C(=O)C[C@@H](C(=O)N2CCOCC2)N(C)C(=O)[C@H](C2CCCC2)N(C)C(=O)C2(CCOCC2)NC(=O)[C@@H]2CCCN2C(=O)[C@H](CCc2cc(F)c(C(F)(F)F)c(F)c2)NC(=O)CN(C)C(=O)[C@H](Cc2ccc(C(F)(F)F)cc2)N2CCCCC[C@@H](C2=O)N(C)C(=O)CN(C)C1=O [PP0502] |  |  | NRAS/KRAS (ratio of KD value with respect to NRAS to KD value with respect to KRAS) [1]: A (a compound having 10 or more and less than 20 is denoted as A); HRAS/KRAS (ratio of KD value with respect to HRAS to KD value with respect to KRAS) [2]: B (a compound having 3 or more and less than 10 is denoted as B)
11 | 0.27 |  | C#CCN1C(=O)[C@@H]2CCN2C(=O)[C@H](C)N(C)C(=O)[C@H]([C@@H](C)CC)NC(=O)[C@H](CC(C)C)N(C)C(=O)C[C@@H](C(=O)N2CCOCC2)N(C)C(=O)[C@H](C2CCCC2)N(C)C(=O)C2(CCCC2)NC(=O)[C@@H]2CCCN2C(=O)[C@H](CCc2ccc(C(F)(F)F)c(Cl)c2)NC(=O)CN(C)C(=O)[C@@H]1Cc1ccc(C(F)(F)F)cc1 [PP0116] ([NMeL]I[NMeA][Aze][X38][Sar][hPhe(3-Cl-4-CF3)]P[Ac5c][NMeGly(cPent)][NMeD]-Morpholide; lactam N-11) | C (A compound having a KD ratio of 0.1 or more and less than 3 is denoted as C) | C (A compound having a KD ratio of 0.1 or more and less than 3 is denoted as C) | 
12 | 4.8 |  | CC[C@H](C)[C@@H]1NC(=O)[C@H](CC(C)C)N(C)C(=O)C[C@@H](C(=O)N2CCOCC2)N(C)C(=O)[C@H](C2CCCC2)N(C)C(=O)C2(CC2)NC(=O)[C@@H]2CCCN2C(=O)[C@H](CCc2cc(F)c(C(F)(F)F)c(F)c2)NC(=O)CN(C)C(=O)[C@H](Cc2ccc(C(F)(F)F)cc2)N2CCCCC[C@@H](C2=O)N(C)C(=O)CN(C)C1=O [PP0496] |  |  | NRAS/KRAS (ratio of KD value with respect to NRAS to KD value with respect to KRAS) [1]: B (a compound having 3 or more and less than 10 is denoted as B); HRAS/KRAS (ratio of KD value with respect to HRAS to KD value with respect to KRAS) [2]: B (a compound having 3 or more and less than 10 is denoted as B)
